Drawing on the RepoRT retention time repository (doi:10.1016/j.chroma.2022.462867), this text covers LC retention time for 22 compounds.

Details in all cases: stereoisomer not certain
A short description of series [1]: HILIC, Phenomenex Kinetex HILIC, 150 × 3 mm, 2.6 µm, 40 °C, 0.35 mL/min, estimated dead time 1.9 min; A: water + 0.1% formic acid, pH 3; B: methanol; gradient (min/%B) 0/95 20/0 25/0 30/95.
The nature of series [2]: RP, Phenomenex Kinetex PS C18, 150 × 3 mm, 2.6 µm, 40 °C, 0.35 mL/min, estimated dead time 1.9 min; A: water + 5 mM ammonium acetate, pH 5; B: methanol; gradient (min/%B) 0/5 20/100 25/100 30/5.
Series [3] is described as follows: RP, Phenomenex Kinetex EVO C18, 150 × 3 mm, 2.6 µm, 40 °C, 0.35 mL/min, estimated dead time 1.9 min; A: water + 5 mM ammonium formate, pH 5; B: acetonitrile; gradient (min/%B) 0/5 20/100 25/100 30/5.
Series [4] is described as follows: RP, Phenomenex Kinetex EVO C18, 150 × 3 mm, 2.6 µm, 40 °C, 0.35 mL/min, estimated dead time 1.9 min; A: water + 0.1% formic acid, pH 3; B: methanol; gradient (min/%B) 0/5 20/100 25/100 30/5.

For the compound `CCN=C1NC(NC(C)C)=NC(SC)N1` (configuration not stated) [Ametryn], the LC retention time in series [1] was 2.32 min; in series [2], 15.1 min; in series [3], 11.3 min.

Regarding `CCN=C1NC(NC(C)C)=NC(OC)N1` (configuration not stated) [Atraton], the LC retention time was 2.68 min in series [1], 8.8 min in series [4] and 13.7 min in series [2].

Take `CC(C)(C)C(=O)C(Oc1ccc(Cl)cc1)n1ccnc1` (configuration not stated) [Climbazole]: the results for the LC retention time in series [1], in series [4] and in series [2] were 2.73 min, 11.5 min and 16.2 min, respectively.

In the case of `CN1C(=O)CCC1c1cccnc1` (configuration not stated) [Cotinine], the figures for the LC retention time in series [1], in series [2] and in series [3] were 3.02 min, 7.52 min and 3.66 min, respectively.

With `CN1CC(=O)NC1=N` [Creatinine], in series [1], the LC retention time was 4 min.

In the case of `O=C(NCC1CCCCN1)c1cc(OCC(F)(F)F)ccc1OCC(F)(F)F` (configuration not stated) [Flecainide], the LC retention time in series [1] is 3.47 min; in series [4], 9.18 min; in series [2], 12.8 min; in series [3] it was 11.5 min.

Regarding `NCC1(CC(=O)O)CCCCC1` [Gabapentin], the LC retention time in series [1] was 3.33 min; in series [4], 4.04 min; in series [2], 5.49 min; in series [3], 2.95 min.

Take `O=C(CCCN1CCC(O)(c2ccc(Cl)cc2)CC1)c1ccc(F)cc1` [Haloperidol]: the LC retention time is 3.41 min in series [1], 9.88 min in series [4], 13.7 min in series [2] and 12.3 min in series [3].

For `C=CCOC(Cn1ccnc1)c1ccc(Cl)cc1Cl` (configuration not stated) [Imazalil], the LC retention time in series [1] is 3.65 min; in series [4], 10.4 min; in series [2], 17.1 min; in series [3], 12.9 min.

With `CC(=O)N1CCN(c2ccc(OCC3COC(Cn4ccnc4)(c4ccc(Cl)cc4Cl)O3)cc2)CC1` (configuration not stated) [Ketoconazole], the LC retention time in series [1] was 4.05 min; in series [4], 11.2 min; in series [2], 17.6 min; in series [3] it was 12.2 min.

As to `Cc1ccc(S(=O)(=O)N(C)N=O)cc1` [N-Methyl-N-nitrosotoluene-4-sulphonamide], the LC retention time in series [1] was 2.38 min; in series [4], 10.3 min; in series [2], 13.9 min; in series [3] it was 9.88 min.

`CN(C)CC(c1ccc(O)cc1)C1(O)CCCCC1` (configuration not stated) [O-Desmethylvenlafaxine]: the LC retention time in series [1] is 4.13 min; in series [4], 5.49 min; in series [2], 9.2 min; in series [3], 6.48 min.

On to `COC(=O)C1C2CC3c4[nH]c5cc(OC)ccc5c4CCN3CC2CC(OC(=O)c2cc(OC)c(OC)c(OC)c2)C1OC` (configuration not stated) [Reserpine], for which the LC retention time in series [1] was 3.31 min; in series [4], 11.5 min; in series [2], 17.1 min; in series [3], 13.3 min.

As for `Oc1ccc2ccccc2c1N=Nc1ccccc1` [Sudan I], the values for the LC retention time in series [4], in series [2] and in series [3] were 19.4 min, 19.2 min and 15.2 min, respectively.

As to `Cc1cc(C)nc(NS(=O)(=O)c2ccc(N)cc2)n1` [Sulfamethazine], the values for the LC retention time in series [4], in series [2] and in series [3] were 6.77 min, 7.93 min and 5.18 min, respectively.

`Nc1ccc(S(=O)(=O)Nc2ccccn2)cc1` [Sulfapyridine]: the LC retention time in series [4] was 5.39 min; in series [2] it was 6.53 min; in series [3] it was 4.4 min.

Regarding `Cn1c(=O)c2[nH]cnc2n(C)c1=O` [Theophylline], the LC retention time in series [4] was 5.29 min; in series [2] it was 6.79 min; in series [3], 3.27 min.

For `CC(C)COP(=O)(OCC(C)C)OCC(C)C` [Tri-isobutyl phosphate], the LC retention time in series [4] is 17.8 min; in series [2], 18 min; in series [3], 14 min.

On to `CCOP(=O)(OCC)OCC` [Triethyl phosphate], for which the LC retention time in series [4] is 10.5 min; in series [2], 11.2 min; in series [3], 6.52 min.

As to `CCCN(CCC)c1c([N+](=O)[O-])cc(C(F)(F)F)cc1[N+](=O)[O-]` [Trifluralin], the figures for the LC retention time in series [4], in series [2] and in series [3] were 16.9 min, 19 min and 16.5 min, respectively.

On to `O=P(Oc1ccccc1)(Oc1ccccc1)Oc1ccccc1` [Triphenylphosphate], for which the figures for the LC retention time in series [4], in series [2] and in series [3] were 17.2 min, 17.3 min and 13.8 min, respectively.

Turning to `OC(Cn1cncn1)(Cn1cncn1)c1ccc(F)cc1F` [fluconazole], the LC retention time in series [4] is 8.85 min; in series [2] it was 9.64 min; in series [3], 5.92 min.
